According to publication PMC9268013, “Design, Synthesis, and Biological Evaluation of N14-Amino Acid-Substituted Tetrandrine Derivatives as Potential Antitumor Agents against Human Colorectal Cancer” (Molecules, 2022):

How the values were obtained:
[1] = test system: human colon cancer cells (HCT-15); test: MTT antiproliferative assay, HCT-15; assay type: cell-based; details: for IC50: Homo sapiens, MTT, 72 h, HCT-15; for Improvement of antiproliferative activity compared with TET: HCT-15 cells, vs TET (IC50 = 6.12 μM)
Experimental: (§1) Human lung cancer cell (A549,), human umbilical vein endothelial cells (HUVECs,), human colon cancer cell lines (HCT-15), human breast cancer cells (MCF-7), human liver cancer cells (HepG2), human pancreatic cancer cells (BxPC-3), and human hepatic cell line (L-02) were obtained from the Sichuan University. A549, HUVECs, and L-02 were cultured in DMEM medium (high glucose, HyClone, GE Healthcare, Sydney, Australia). Human colon cancer cell lines HCT-15, human pancreatic cancer cells […] BxPC-3 were cultured in RPMI-1640. Human breast cancer cells MCF-7 and human liver cancer cells HepG2 were cultured in MEM medium. All the mediums, including 10% fetal bovine serum (FBS, HyClone, GE Healthcare, Sydney, Australia) and 1% ampicillin/streptomycin, were used to culture the above cells at 37 °C in a humidified atmosphere (5% CO2 and 95% air).
(§2) The antiproliferative activity of the title compounds was determined using the MTT (3-(4,5-dimethylthiazol-2-yl)-2,5-diphenyltetrazolium bromide, Sigma-Aldrich, Saint Louis, MO, USA) assay on different cells. Cells lines were seeded into 96-well plates at a density of 2000 to 6000 cells/well. DMSO was used to dissolve the test compounds, and TET was used as a positive control. After 24 h, the test compounds were added at different concentrations (0.625, 1.25, 2.5, 5, 10, and 20 μM) and incubated at 37 °C for 72 h. MTT was added to each well at a final concentration of 0.5 mg/mL and incubated at 37 °C for 4 h. Then, 150 μL of DMSO was added to each well to dissolve the formazan crystals. The absorbance was measured at 570 nm by a microplate reader (ELX800UV, Bio-Tek, Windoski, VT, USA). All measurements were repeated at least three times under the same conditions. Graphpad Prism 8.0 was used to calculate the IC50 values.

[2] = test system: human lung cancer cells (A549); test: MTT antiproliferative assay, A549; assay type: cell-based; details: Homo sapiens, A549, 72 h
Experimental: as §1, §2

[3] = test system: human pancreatic cancer cells (BxPC-3); test: MTT antiproliferative assay, BxPC-3; assay type: cell-based; details: Homo sapiens, BXPC-3, 72 h
Experimental: as §1, §2

[4] = test system: human normal hepatocyte cells (L-02); test: MTT toxicity assay, normal hepatocytes L-02; assay type: cell-based; details: 72 h, normal hepatocyte L-02 (toxicity), read-out: Antiproliferative Activity (IC50/μM) L-02
Experimental: as §1, §2

[5] = test system: human breast cancer cells (MCF-7); test: MTT antiproliferative assay, MCF-7; assay type: cell-based; details: Homo sapiens, MCF7, 72 h
Experimental: as §1, §2

[6] = test system: human umbilical vein endothelial cells (HUVEC); test: MTT antiproliferative assay, HUVEC; assay type: cell-based; details: 72 h
Experimental: as §1, §2

[7] = test system: human liver cancer cells (HepG2); test: MTT antiproliferative assay, HepG2; assay type: cell-based; details: Homo sapiens, HepG2, 72 h
Experimental: as §1, §2

[8] = Aqueous solubility determination by HPLC; assay type: physicochemical; details: neutral water
Experimental: Briefly, each tested compound (10 mg) was dissolved in 10 mL of CH3OH, and the standard solution (0.5 mL) was used to determine the wavelength of maximum absorbance by HPLC. The solution was diluted as necessary, and the solubility was determined by linear regression with R^2 > 0.999. Each tested compound (5 mg) was ultrasound dissolved in 3 mL of pure water for 1 h at room temperature, and the mixture was then […] at 3000 rpm for 15 min. The saturated supernatants were determined by HPLC at the wavelength of the maximum absorption, and the absorbances were obtained. The solubility was calculated according to the standard curve.

[9] = test system: HCT-15 cells; test: Flow cytometry Annexin V-FITC/PI apoptosis analysis; assay type: cell-based, human; details: HCT-15, TET treatment groups (1.25, 2.5, 5 μM), 48 h
Experimental: HCT-15 cells were cultured in complete medium in six-well plates for 24 h, and […]. 2.5, 5 μM of 16 was added in triplicate for 48 h incubation. The cells were digested with trypsin without EDTA, washed twice with cold PBS, and resuspended in 500 μL binding buffer. The cell suspension was stained successively with 5 μL Annexin V-FITC and 5 μL PI (Keygen Biotech, Nanjing, China), and cultured for 15 min and 5 min in total dark, respectively. Afterwards, the percentages of apoptotic cells were determined by a flow cytometry. Data were analyzed by FlowJo software (Version 10, FlowJo, LLC, Ashland, OR, USA).

| Structure (SMILES) | IC50 [1] [µM] | IC50 [2] [µM] | IC50 [3] [µM] | IC50 [4] [µM] | IC50 [5] [µM] | IC50 [6] [µM] | IC50 [7] [µM] | Improvement of antiproliferative activity compared with TET [1] | solubility at 1 h ([8]; pure water, thermodynamic from solid, room temperature, HPLC) [µg/mL] | Percentage of apoptotic cells [9] | Increase of aqueous solubility compared to TET ([8]; vs TET) |
| --- | --- | --- | --- | --- | --- | --- | --- | --- | --- | --- | --- |
| COc1cc(NC(=O)[C@@H](N)Cc2ccc(O)cc2)c2cc1Oc1ccc(cc1)C[C@H]1c3cc(c(OC)cc3CCN1C)Oc1c(OC)c(OC)cc3c1[C@H](C2)N(C)CC3 [Compound 20, 14-N-(L-tyrosine)-tetrandrine] | 3.33 ± 0.08 | 4.12 ± 0.27 | 2.36 ± 0.15 | 10 ± 1.28 | 3.7 ± 0.91 | 1.91 ± 0.09 | 1.44 ± 0.18 |  |  |  |  |
| COc1cc(NC(=O)[C@@H](N)CC(C)C)c2cc1Oc1ccc(cc1)C[C@H]1c3cc(c(OC)cc3CCN1C)Oc1c(OC)c(OC)cc3c1[C@H](C2)N(C)CC3 [Compound 15, 14-N-(L-leucine)-tetrandrine] | 2.71 ± 0.22 | 5.92 ± 0.73 | 4.55 ± 0.27 | 12.08 ± 0.04 | 6.74 ± 0.16 | 3.09 ± 0.36 | 3.66 ± 0.82 |  |  |  |  |
| COc1cc(NC(=O)[C@@H](Cc2ccccc2)NC(=O)OC(C)(C)C)c2cc1Oc1ccc(cc1)C[C@H]1c3cc(c(OC)cc3CCN1C)Oc1c(OC)c(OC)cc3c1[C@H](C2)N(C)CC3 [Compound 10] | 0.91 ± 0.05 | 1.96 ± 0.24 | 2.31 ± 0.08 | 15.54 ± 0.11 | 2.59 ± 0.11 | 1.8 ± 0.02 | 1.54 ± 0.02 | more than 6 fold |  |  |  |
| COc1cc(NC(=O)[C@H](N)Cc2ccccc2)c2cc1Oc1ccc(cc1)C[C@H]1c3cc(c(OC)cc3CCN1C)Oc1c(OC)c(OC)cc3c1[C@H](C2)N(C)CC3 [Compound 19] | 3.39 ± 0.07 | 2.67 ± 0.14 | 1.75 ± 0.13 | 9.02 ± 0.26 | 3.31 ± 0.01 | 1.92 ± 0.17 | 1.71 ± 0.46 |  |  |  |  |
| COc1cc(NC(=O)[C@H](Cc2ccc(O)cc2)NC(=O)OC(C)(C)C)c2cc1Oc1ccc(cc1)C[C@H]1c3cc(c(OC)cc3CCN1C)Oc1c(OC)c(OC)cc3c1[C@H](C2)N(C)CC3 [Compound 11, 14-N-(Boc-L-tyrosine)-tetrandrine] | 3.56 ± 0.27 | 6.26 ± 0.41 | 3.58 ± 0.15 | 11.8 ± 0.61 | 5.03 ± 0.04 | 2.16 ± 0.32 | 2.81 ± 0.35 |  |  |  |  |
| COc1cc(NC(=O)[C@@H](N)CO)c2cc1Oc1ccc(cc1)C[C@H]1c3cc(c(OC)cc3CCN1C)Oc1c(OC)c(OC)cc3c1[C@H](C2)N(C)CC3 [Compound 17, 14-N-(L-serine)-tetrandrine] | 3.94 ± 0.37 | 7.44 ± 1.02 | 3.67 ± 0.19 | > 20 | 7.53 ± 0.11 | 2.88 ± 0.26 | 3.13 ± 0.7 |  |  |  |  |
| COc1ccc2cc1Oc1ccc(cc1)C[C@H]1c3cc(c(OC)cc3CCN1C)Oc1c(OC)c(OC)cc3c1[C@H](C2)N(C)CC3 [TET, tetrandrine] | 6.12 ± 0.51 | 6.39 ± 0.83 | 7.6 ± 0.16 | 16 ± 1.18 | 3.9 ± 0.47 | 3.62 ± 0.02 | 3.25 ± 0.11 |  | < 30 | lower than 14% |  |
| COc1cc(NC(=O)[C@H](CC(C)C)NC(=O)OC(C)(C)C)c2cc1Oc1ccc(cc1)C[C@H]1c3cc(c(OC)cc3CCN1C)Oc1c(OC)c(OC)cc3c1[C@H](C2)N(C)CC3 [Compound 6] | 3.89 ± 0.47 | 5.54 ± 0.16 | 6.39 ± 0.2 | 13.58 ± 0.13 | 4.99 ± 0.66 | 2.09 ± 0.19 | 3.11 ± 0.68 |  |  |  |  |
| COc1cc(NC(=O)CN)c2cc1Oc1ccc(cc1)C[C@H]1c3cc(c(OC)cc3CCN1C)Oc1c(OC)c(OC)cc3c1[C@H](C2)N(C)CC3 [Compound 12, 14-N-(L-glycine)-tetrandrine] | 3.54 ± 0.36 | 4.94 ± 0.45 | 3.98 ± 0.16 | > 20 | 6.91 ± 0.66 | 3.19 ± 0.61 | 3.19 ± 0.76 |  |  |  |  |
| COc1cc(NC(=O)[C@@H](N)[C@@H](C)O)c2cc1Oc1ccc(cc1)C[C@H]1c3cc(c(OC)cc3CCN1C)Oc1c(OC)c(OC)cc3c1[C@H](C2)N(C)CC3 [Compound 18, 14-N-(L-threonine)-tetrandrine] | 5.28 ± 0.37 | 6.81 ± 1.1 | 5.6 ± 0.38 | > 20 | 10.2 ± 0.4 | 3.25 ± 0.69 | 3.57 ± 0.67 |  |  |  |  |
| COc1cc(NC(=O)[C@@H](N)C(C)C)c2cc1Oc1ccc(cc1)C[C@H]1c3cc(c(OC)cc3CCN1C)Oc1c(OC)c(OC)cc3c1[C@H](C2)N(C)CC3 [Compound 14, 14-N-(L-valine)-tetrandrine] | 4.02 ± 0.15 | 6.11 ± 0.91 | 4.95 ± 0.29 | 14.5 ± 0.37 | 7.96 ± 1.08 | 2.48 ± 0.15 | 3.26 ± 0.05 |  |  |  |  |
| COc1cc(NC(=O)[C@@H](NC(=O)OC(C)(C)C)[C@@H](C)O)c2cc1Oc1ccc(cc1)C[C@H]1c3cc(c(OC)cc3CCN1C)Oc1c(OC)c(OC)cc3c1[C@H](C2)N(C)CC3 [Compound 9] | 8.57 ± 0.57 | 12.3 ± 0.61 | 13.1 ± 0.37 | > 20 | 11.3 ± 0.55 | 4.91 ± 1.05 | 6.97 ± 0.34 |  |  |  |  |
| COc1cc(NC(=O)[C@H](C)NC(=O)OC(C)(C)C)c2cc1Oc1ccc(cc1)C[C@H]1c3cc(c(OC)cc3CCN1C)Oc1c(OC)c(OC)cc3c1[C@H](C2)N(C)CC3 [Compound 4] | 3.28 ± 0.32 | 7.44 ± 1.11 | 4.74 ± 0.37 | > 20 | 5.78 ± 0.35 | 4.01 ± 0.41 | 3.9 ± 0.62 |  |  |  |  |
| COc1cc(NC(=O)[C@@H](NC(=O)OC(C)(C)C)C(C)C)c2cc1Oc1ccc(cc1)C[C@H]1c3cc(c(OC)cc3CCN1C)Oc1c(OC)c(OC)cc3c1[C@H](C2)N(C)CC3 [Compound 5] | 4.31 ± 0.09 | 7.24 ± 0.41 | 4.63 ± 0.09 | > 20 | 7.4 ± 0.31 | 3.04 ± 0.34 | 3.54 ± 0.3 |  |  |  |  |
| COc1cc(NC(=O)[C@H]2CCCN2C(=O)OC(C)(C)C)c2cc1Oc1ccc(cc1)C[C@H]1c3cc(c(OC)cc3CCN1C)Oc1c(OC)c(OC)cc3c1[C@H](C2)N(C)CC3 [Compound 7, 14-N-(Boc-L-proline)-tetrandrine] | 1.15 ± 0.17 | 6.4 ± 0.36 | 3.1 ± 0.26 | 17.5 ± 0.21 | 5.71 ± 0.29 | 3.49 ± 0.31 | 3.5 ± 1.37 |  |  |  |  |
| COc1cc(NC(=O)[C@H](CO)NC(=O)OC(C)(C)C)c2cc1Oc1ccc(cc1)C[C@H]1c3cc(c(OC)cc3CCN1C)Oc1c(OC)c(OC)cc3c1[C@H](C2)N(C)CC3 [Compound 8, 14-N-(Boc-L-serine)-tetrandrine] | 5.87 ± 0.3 | 7.45 ± 0.32 | 3.55 ± 0.32 | > 20 | 5.84 ± 0.25 | 3.96 ± 0.36 | 3.76 ± 1.34 |  |  |  |  |
| COc1cc(NC(=O)[C@H](C)N)c2cc1Oc1ccc(cc1)C[C@H]1c3cc(c(OC)cc3CCN1C)Oc1c(OC)c(OC)cc3c1[C@H](C2)N(C)CC3 [Compound 13] | 4.69 ± 0.47 | 8.12 ± 0.43 | 6.95 ± 0.57 | > 20 | 11.1 ± 0.26 | 2.2 ± 0.37 | 3.27 ± 1 |  |  |  |  |
| COc1cc(NC(=O)CNC(=O)OC(C)(C)C)c2cc1Oc1ccc(cc1)C[C@H]1c3cc(c(OC)cc3CCN1C)Oc1c(OC)c(OC)cc3c1[C@H](C2)N(C)CC3 [Compound 3, 14-N-(Boc-L-glycine)-tetrandrine] | 2.42 ± 0.06 | 2.15 ± 0.17 | 2.55 ± 0.03 | 8.59 ± 0.13 | 2.91 ± 0.17 | 1.68 ± 0.21 | 1.94 ± 0.27 | about 2 fold |  |  | approximately 16 fold |
